Data taken from publication PMC2779710 (Journal of medicinal chemistry, 2009).
Positions of bridges follow the written chain, without caps; N, C: chain ends. Non-standard residues stand in square brackets, D forms with d. Residues, ends and D or L forms follow the SMILES beside them. Phe(4-CH2NHiPr) = CC(C)NCc1ccc(C[C@H](N)C(=O)O)cc1

Columns and labels:
[1] = target: human sst1 receptor (Homo sapiens, UniProt P30872); experiment: Luciferase reporter gene assay in CCL39-sst1-Luci cells; conditions: for Luciferase Assay (agonist/antagonist property): CCL39-sst1-Luci cells, 0.1 nM to 1 μM, 5 h
human sst1 receptor, sequence (P30872 whole entry): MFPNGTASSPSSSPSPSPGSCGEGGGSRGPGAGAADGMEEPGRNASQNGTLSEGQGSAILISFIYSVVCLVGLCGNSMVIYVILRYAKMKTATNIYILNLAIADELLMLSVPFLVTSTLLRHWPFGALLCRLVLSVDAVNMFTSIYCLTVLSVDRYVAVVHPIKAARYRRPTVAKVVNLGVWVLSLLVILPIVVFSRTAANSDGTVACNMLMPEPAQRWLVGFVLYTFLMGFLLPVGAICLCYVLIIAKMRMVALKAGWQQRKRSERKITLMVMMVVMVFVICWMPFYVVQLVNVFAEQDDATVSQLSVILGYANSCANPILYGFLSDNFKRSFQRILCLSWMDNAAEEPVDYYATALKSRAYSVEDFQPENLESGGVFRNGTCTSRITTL

[2] = tested on: SRIF receptor; conditions: cited from earlier work

SMILES	Luciferase Assay (agonist/antagonist property) [1]	less potent than SRIF or 25 in luciferase reporter gene assay ([1]; EC50 comparison)	binding affinity to any SRIF receptor [2]
CC(C)NCc1ccc(C[C@@H]2NC(=O)[C@@H](Cc3c[nH]c4ccccc34)NC(=O)[C@H](Cc3ccccc3)NC(=O)[C@H](Cc3ccccc3)NC(=O)[C@H](CCCCN)NC(=O)[C@@H](NC(=O)[C@@H](N)Cc3ccc(O)cc3)CSSC[C@@H](C(=O)O)NC(=O)[C@H](CO)NC(=O)[C@H]([C@@H](C)O)NC(=O)[C@H](Cc3ccccc3)NC(=O)[C@H]([C@@H](C)O)NC2=O)cc1 [Compound 33, reference compound] (H-YCKFF[dW][Phe(4-CH2NHiPr)]TFTSC-OH; disulfide 2-12 (inferred))	agonist	approximately 100 fold	
CC(C)NCc1ccc(C[C@@H]2NC(=O)[C@@H](Cc3c[nH]c4ccccc34)NC(=O)[C@H](Cc3ccccc3)NC(=O)[C@H](Cc3ccccc3)NC(=O)[C@@H](N)CSSC[C@@H](C(=O)O)NC(=O)[C@H](Cc3ccccc3)NC(=O)[C@H]([C@@H](C)O)NC2=O)cc1 [Compound 9, des-AA^1,2,4,5,12,13-[DTrp^8, IAmp^9]-SRIF] (H-CFF[dW][Phe(4-CH2NHiPr)]TFC-OH; disulfide 1-8 (inferred))			no binding affinity
CC(C)NCc1ccc(C[C@@H]2NC(=O)[C@@H](N(C)C(=O)c3ccc4ccccc4c3)NC(=O)[C@H](Cc3ccccc3)NC(=O)[C@@H](NC(=O)[C@H](N)Cc3ccc(O)cc3)CSSC[C@@H](C(=O)N[C@H](C(N)=O)[C@@H](C)O)NC(=O)[C@H](Cc3ccccc3)NC2=O)cc1 [Compound 25, des-AA^1,4-6,10,12,13-[DTyr^2,DAgl(NMe,2naphthoyl)^8,IAmp^9]-SRIF-Thr-NH2]	potent sst1 agonist		
CC(C)NCc1ccc(C[C@@H]2NC(=O)[C@@H](N(C)C(=O)c3ccc4ccccc4c3)NC(=O)[C@H](Cc3ccccc3)NC(=O)[C@@H](N)CSSC[C@@H](C(=O)N[C@H](C(N)=O)[C@@H](C)O)NC(=O)[C@H](Cc3ccccc3)NC2=O)cc1 [Compound 23, des-AA^1,2,4-6,10,12,13-[DAgl(NMe,2naphthoyl)^8,IAmp^9]-SRIF-Thr-NH2]	agonist		
CC(C)NCc1ccc(C[C@@H]2NC(=O)[C@@H](N(C)C(=O)c3ccc4ccccc4c3)NC(=O)[C@H](Cc3ccccc3)NC(=O)[C@H](N)CSSC[C@@H](C(=O)N[C@@H](Cc3ccc4ccccc4c3)C(N)=O)NC(=O)[C@H](Cc3ccccc3)NC2=O)cc1 [Compound 29, des-AA^1,2,4-6,10,12,13-[DCys^3,DAgl(NMe,2naphthoyl)^8,IAmp^9]-SRIF-2Nal-NH2]	agonist		
CC(C)NCc1ccc(C[C@@H]2NC(=O)[C@@H](N(C)C(=O)c3ccc4ccccc4c3)NC(=O)[C@H](Cc3ccccc3)NC(=O)[C@@H](N)CSSC[C@@H](C(N)=O)NC(=O)[C@H](Cc3ccc(O)cc3)NC2=O)cc1 [Compound 27, des-AA^1,2,4-6,10,12,13-[DAgl(NMe,2naphthoyl)^8,IAmp^9,Tyr^11]-SRIF-NH2]	agonist		
